Laboratory results as given in patent publication US20060069132A1, “Azolecarboxamide herbicides” (priority 2004, published 2006).

Experiments:
[1] = tested on: barnyardgrass; assay: Test B pre-/postemergence herbicide test; format: in vivo, Echinochloa crus-galli; details: for Plant response rating (0 to 100 scale), Barnyardgrass: 0 is no effect, 100 is complete control, preemergence; for Barnyardgrass plant response rating: Postemergence, scale 0 (no effect) to 100 (complete control)
Procedure, shortened: (§1)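 Test chemicals in a non-phytotoxic solvent mixture with surfactant were applied preemergence to seeded species and postemergence to plants 2-18 cm tall (1- to 4-leaf stage); rice and barnyardgrass were also tested in a flooded paddy at the 2-leaf stage. Visual rating versus controls after 13-15 days in greenhouse, scale 0 (no effect) to 100 (complete control).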

[2] = tested on: Surinam grass; assay: Test B pre-/postemergence herbicide test; format: in vivo, Urochloa decumbens; details: for Plant response rating (0 to 100 scale), Surinam Grass: 0 is no effect, 100 is complete control, preemergence
Procedure, shortened: (§2)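 Formulation: non-phytotoxic solvent mix with surfactant. Timing: preemergence on seed and postemergence on 2–18 cm plants, applied concurrently. Readout after 13–15 d greenhouse: visual 0–100 control rating against controls.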

[3] = tested on: cocklebur; assay: Test B pre-/postemergence herbicide test; format: in vivo, Xanthium strumarium; details: for Plant response rating (0 to 100 scale), Cocklebur: 0 is no effect, 100 is complete control, preemergence
Procedure, shortened: as §1

[4] = tested on: corn; assay: Test B pre-/postemergence herbicide test; format: in vivo, Zea mays; details: for Plant response rating (0 to 100 scale), Corn: 0 is no effect, 100 is complete control, preemergence
Procedure, shortened: as §2

[5] = tested on: large crabgrass; assay: Test B pre-/postemergence herbicide test; format: in vivo, Digitaria sanguinalis; details: for Plant response rating (0 to 100 scale), Crabgrass, Large: 0 is no effect, 100 is complete control, preemergence
Procedure, shortened: as §2

[6] = tested on: giant foxtail; assay: Test B pre-/postemergence herbicide test; format: in vivo, Setaria faberi; details: for Plant response rating (0 to 100 scale), Foxtail, Giant: 0 is no effect, 100 is complete control, preemergence
Procedure, shortened: as §2

[7] = tested on: lambsquarters; assay: Test B pre-/postemergence herbicide test; format: in vivo, Chenopodium album; details: for Plant response rating (0 to 100 scale), Lambsquarters: 0 is no effect, 100 is complete control, preemergence
Procedure, shortened: as §2

[8] = tested on: morningglory; assay: Test B pre-/postemergence herbicide test; format: in vivo, Ipomoea coccinea; details: for Plant response rating (0 to 100 scale), Morningglory: 0 is no effect, 100 is complete control, preemergence
Procedure, shortened: as §1

[9] = tested on: pigweed; assay: Test B pre-/postemergence herbicide test; format: in vivo, Amaranthus retroflexus; details: for Plant response rating (0 to 100 scale), Pigweed: 0 is no effect, 100 is complete control, preemergence
Procedure, shortened: as §2

[10] = tested on: velvetleaf; assay: Test B pre-/postemergence herbicide test; format: in vivo, Abutilon theophrasti; details: for Plant response rating (0 to 100 scale), Velvetleaf: 0 is no effect, 100 is complete control, preemergence
Procedure, shortened: as §2

[11] = tested on: blackgrass; assay: Test B postemergence herbicide test; format: in vivo, Alopecurus myosuroides
Procedure, shortened: (§3)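 Paddy species grown to the 2-leaf stage under flooding; blackgrass sprayed postemergence at 2–18 cm (1- to 4-leaf stage). Plants kept in a greenhouse for 13 to 15 days, then visually rated against controls on 0 (no effect) to 100 (complete control).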

[12] = tested on: wheat; assay: Test B postemergence herbicide test; format: in vivo, Triticum aestivum; design: key to Wheat plant response rating: 0 = no effect, 100 = complete control
Procedure, shortened: (§4)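 Postemergence plants were sprayed with formulated test chemicals at 2 to 18 cm height (1- to 4-leaf stage); paddy species were grown to the 2-leaf stage. After 13 to 15 days in a greenhouse, injury was rated visually against untreated controls on a 0–100 scale (0 = no effect, 100 = complete control).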

[13] = tested on: wild oat; assay: Test B postemergence herbicide test; format: in vivo, Avena fatua
Procedure, shortened: as §4

[14] = tested on: rice; assay: Test B flooded paddy test; format: in vivo, Oryza sativa; details: 1000 g ai/ha, scale 0 to 100 (0 no effect, 100 complete control)
Procedure, shortened: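 Scale 0–100: zero equals no visible effect, 100 complete control, judged by eye relative to controls. Timing: 13 to 15 days in greenhouse post-treatment. Growth stage at spraying: two leaves (paddy) or one to four leaves, 2–18 cm (postemergence).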

[15] = tested on: small flower umbrella sedge; assay: Test B flooded paddy test; format: in vivo, Cyperus difformis; details: 1000 g ai/ha, scale 0 to 100 (0 no effect, 100 complete control)
Procedure, shortened: as §3

[16] = tested on: ducksalad; assay: Test B flooded paddy test; format: in vivo, Heteranthera limosa; details: 1000 g ai/ha, scale 0 to 100 (0 no effect, 100 complete control)
Procedure, shortened: as §3

[17] = tested on: barnyardgrass; assay: Test B flooded paddy test; format: in vivo, Echinochloa crus-galli; details: 1000 g ai/ha, scale 0 to 100 (0 no effect, 100 complete control)
Procedure, shortened: as §3

[18] = Postemergence, 500 g ai/ha, scale 0 (no effect) to 100 (complete control)
[19] = postemergence, 125 g ai/ha, scale 0 to 100
[20] = 500 g ai/ha, scale 0 to 100, 0 no effect, 100 complete control, preemergence

Cc1nn(C(C)(C)C)nc1C(=O)Nc1cc(C(=O)N(C)C)ccn1 [Compound 423]
Plant response rating (0 to 100 scale), Barnyardgrass ([1]; 125 g ai/ha): 90
Barnyardgrass plant response rating ([1]; 125 g ai/ha): 10
Barnyardgrass plant response rating ([1]; 500 g ai/ha): 30
Plant response rating (0 to 100 scale), Surinam Grass ([2]; 125 g ai/ha): 90
Surinam Grass plant response rating [2, 18]: 30
Surinam Grass plant response rating [2, 19]: 10
Plant response rating (0 to 100 scale), Cocklebur ([3]; 125 g ai/ha): 20
Cocklebur plant response rating [3, 18]: 30
Cocklebur plant response rating [3, 19]: 10
Plant response rating (0 to 100 scale), Corn ([4]; 125 g ai/ha): 30
Corn plant response rating [4, 18]: 20
Corn plant response rating [4, 19]: 10
Plant response rating (0 to 100 scale), Crabgrass, Large ([5]; 125 g ai/ha): 100
Crabgrass, Large plant response rating [5, 18]: 50
Crabgrass, Large plant response rating [5, 19]: 10
Plant response rating (0 to 100 scale), Foxtail, Giant ([6]; 125 g ai/ha): 90
Foxtail, Giant plant response rating [6, 18]: 30
Foxtail, Giant plant response rating [6, 19]: 20
Plant response rating (0 to 100 scale), Lambsquarters ([7]; 125 g ai/ha): 100
Lambsquarters plant response rating [7, 18]: 70
Lambsquarters plant response rating [7, 19]: 50
Plant response rating (0 to 100 scale), Morningglory ([8]; 125 g ai/ha): 30
Morningglory plant response rating [8, 18]: 80
Morningglory plant response rating [8, 19]: 40
Plant response rating (0 to 100 scale), Pigweed ([9]; 125 g ai/ha): 100
Pigweed plant response rating [9, 18]: 60
Pigweed plant response rating [9, 19]: 40
Plant response rating (0 to 100 scale), Velvetleaf ([10]; 125 g ai/ha): 90
Velvetleaf plant response rating [10, 18]: 50
Velvetleaf plant response rating [10, 19]: 40
Blackgrass plant response rating [11, 18]: 60
Blackgrass plant response rating [11, 19]: 30
Wheat plant response rating [12, 20]: 100
Wheat plant response rating [12, 18]: 0
Wheat plant response rating [12, 19]: 0
Oat, Wild plant response rating [13, 18]: 30
Oat, Wild plant response rating [13, 19]: 0
Rice plant response rating [14]: 60
Sedge, Umbrella plant response rating [15]: 70
Ducksalad plant response rating [16]: 50
Barnyardgrass plant response rating [17]: 80

CCNC(=O)c1ccnc(NC(=O)c2nn(C(C)(C)C)nc2C)c1 [Compound 424]
Plant response rating (0 to 100 scale), Barnyardgrass ([1]; 125 g ai/ha): 20
Barnyardgrass plant response rating ([1]; 125 g ai/ha): 10
Barnyardgrass plant response rating ([1]; 500 g ai/ha): 30
Plant response rating (0 to 100 scale), Surinam Grass ([2]; 125 g ai/ha): 30
Surinam Grass plant response rating [2, 18]: 30
Surinam Grass plant response rating [2, 19]: 20
Plant response rating (0 to 100 scale), Cocklebur ([3]; 125 g ai/ha): 0
Cocklebur plant response rating [3, 18]: 30
Cocklebur plant response rating [3, 19]: 20
Plant response rating (0 to 100 scale), Corn ([4]; 125 g ai/ha): 0
Corn plant response rating [4, 18]: 10
Corn plant response rating [4, 19]: 0
Plant response rating (0 to 100 scale), Crabgrass, Large ([5]; 125 g ai/ha): 90
Crabgrass, Large plant response rating [5, 18]: 30
Crabgrass, Large plant response rating [5, 19]: 10
Plant response rating (0 to 100 scale), Foxtail, Giant ([6]; 125 g ai/ha): 20
Foxtail, Giant plant response rating [6, 18]: 30
Foxtail, Giant plant response rating [6, 19]: 20
Plant response rating (0 to 100 scale), Lambsquarters ([7]; 125 g ai/ha): 70
Lambsquarters plant response rating [7, 18]: 70
Lambsquarters plant response rating [7, 19]: 40
Plant response rating (0 to 100 scale), Morningglory ([8]; 125 g ai/ha): 10
Morningglory plant response rating [8, 18]: 70
Morningglory plant response rating [8, 19]: 30
Plant response rating (0 to 100 scale), Pigweed ([9]; 125 g ai/ha): 90
Pigweed plant response rating [9, 18]: 60
Pigweed plant response rating [9, 19]: 30
Plant response rating (0 to 100 scale), Velvetleaf ([10]; 125 g ai/ha): 20
Velvetleaf plant response rating [10, 18]: 30
Velvetleaf plant response rating [10, 19]: 30
Blackgrass plant response rating [11, 18]: 50
Blackgrass plant response rating [11, 19]: 0
Wheat plant response rating [12, 20]: 50
Wheat plant response rating [12, 18]: 0
Wheat plant response rating [12, 19]: 0
Oat, Wild plant response rating [13, 18]: 0
Oat, Wild plant response rating [13, 19]: 0
Rice plant response rating [14]: 20
Sedge, Umbrella plant response rating [15]: 70
Ducksalad plant response rating [16]: 70
Barnyardgrass plant response rating [17]: 40

CCN(CC)C(=O)c1ccnc(NC(=O)c2nn(C(C)(C)C)nc2C)c1 [Compound 425]
Plant response rating (0 to 100 scale), Barnyardgrass ([1]; 125 g ai/ha): 10
Barnyardgrass plant response rating ([1]; 125 g ai/ha): 10
Barnyardgrass plant response rating ([1]; 500 g ai/ha): 20
Plant response rating (0 to 100 scale), Surinam Grass ([2]; 125 g ai/ha): 40
Surinam Grass plant response rating [2, 18]: 20
Surinam Grass plant response rating [2, 19]: 10
Plant response rating (0 to 100 scale), Cocklebur ([3]; 125 g ai/ha): 0
Cocklebur plant response rating [3, 18]: 20
Cocklebur plant response rating [3, 19]: 10
Plant response rating (0 to 100 scale), Corn ([4]; 125 g ai/ha): 0
Corn plant response rating [4, 18]: 20
Corn plant response rating [4, 19]: 10
Plant response rating (0 to 100 scale), Crabgrass, Large ([5]; 125 g ai/ha): 80
Crabgrass, Large plant response rating [5, 18]: 30
Crabgrass, Large plant response rating [5, 19]: 20
Plant response rating (0 to 100 scale), Foxtail, Giant ([6]; 125 g ai/ha): 20
Foxtail, Giant plant response rating [6, 18]: 30
Foxtail, Giant plant response rating [6, 19]: 20
Plant response rating (0 to 100 scale), Lambsquarters ([7]; 125 g ai/ha): 80
Lambsquarters plant response rating [7, 18]: 70
Lambsquarters plant response rating [7, 19]: 60
Plant response rating (0 to 100 scale), Morningglory ([8]; 125 g ai/ha): 0
Morningglory plant response rating [8, 18]: 80
Morningglory plant response rating [8, 19]: 70
Plant response rating (0 to 100 scale), Pigweed ([9]; 125 g ai/ha): 70
Pigweed plant response rating [9, 18]: 70
Pigweed plant response rating [9, 19]: 50
Plant response rating (0 to 100 scale), Velvetleaf ([10]; 125 g ai/ha): 20
Velvetleaf plant response rating [10, 18]: 30
Velvetleaf plant response rating [10, 19]: 20
Blackgrass plant response rating [11, 18]: 20
Blackgrass plant response rating [11, 19]: 0
Wheat plant response rating [12, 20]: 30
Wheat plant response rating [12, 18]: 0
Wheat plant response rating [12, 19]: 0
Oat, Wild plant response rating [13, 18]: 0
Oat, Wild plant response rating [13, 19]: 0
Rice plant response rating [14]: 20
Sedge, Umbrella plant response rating [15]: 70
Ducksalad plant response rating [16]: 70
Barnyardgrass plant response rating [17]: 30
